# According to ChEMBL document CHEMBL1147357, “Antihypertensive Activity of Corilagin and Chebulinic Acid, Tannins from Lumnitzera, racemosa” (1993):
# Active and inactive are the calls of the source. The rule behind the calls is not given here.
# Key:
# Rattus norvegicus [1] = experiment: Antihypertensive activity in iv dosed conscious normotensive WKY rat assessed as maximal change in tail arterial blood pressure measured at 10 mins interval by dose-response curve analysis; assay type: functional; settings: Artery
# Rattus norvegicus [2] = experiment: Induction of hypotensive effect in conscious normotensive WKY rat; assay type: functional, organism-based
# Rattus norvegicus [3] = experiment: Antihypertensive activity in conscious SHR rat assessed as maximal change in tail arterial blood pressure at 10 mg/kg, iv measured at 10 mins interval relative to blood pressure obtained at preinjection; assay type: functional, Artery
# Rattus norvegicus [4] = experiment: Antihypertensive activity in conscious SHR rat assessed as lowering of tail arterial mean blood pressure at 5 mg/kg during 10 to 130 mins by indirect tail-cuff method; assay type: functional, organism-based; design: dose 5 mg/kg; settings: Artery
# Rattus norvegicus [5] = experiment: Antihypertensive activity in iv dosed conscious SHR rat assessed as maximal change in tail arterial blood pressure measured at 10 mins interval by dose-response curve analysis; assay type: functional; settings: Artery
# Rattus norvegicus [6] = experiment: Antihypertensive activity in conscious SHR rat assessed as maximal change in tail arterial blood pressure at 20 mg/kg, iv measured at 10 mins interval relative to blood pressure obtained at preinjection; assay type: functional, Artery
# Rattus norvegicus [7] = experiment: Induction of […] activity in conscious normotensive WKY rat assessed as maximal change in tail arterial blood pressure at 15 mg/kg, iv measured at 10 mins interval relative to blood pressure obtained at preinjection; assay type: functional, organism-based; design: dose 15 mg/kg
# Rattus norvegicus [8] = experiment: Antihypertensive activity in conscious SHR rat assessed as maximal change in tail arterial blood pressure at 15 mg/kg, iv measured at 10 mins interval relative to blood pressure obtained at preinjection; assay type: functional, Artery
# Rattus norvegicus [9] = experiment: Antihypertensive activity in conscious SHR rat assessed as maximal change in tail arterial blood pressure at 50 mg/kg, iv measured at 10 mins interval relative to blood pressure obtained at preinjection; assay type: functional, Artery
SMILES,ED50 (Rattus norvegicus [1]) [mg/kg],Activity (Rattus norvegicus [2]),Activity (Rattus norvegicus [4]),Activity (Rattus norvegicus [5]),ED50 (Rattus norvegicus [5]) [mg/kg],Activity (Rattus norvegicus [9]) [mmHg],also measured
O=C(O)C[C@H]1C(=O)O[C@H]2[C@H](OC(=O)c3cc(O)c(O)c(O)c3)[C@@H](OC(=O)c3cc(O)c(O)c4c3[C@H]1[C@H](O)C(=O)O4)[C@H](OC(=O)c1cc(O)c(O)c(O)c1)O[C@@H]2COC(=O)c1cc(O)c(O)c(O)c1 [CHEBULINIC ACID],3.4,Active,Active,Dose-dependent effect,3.2,,Activity (Rattus norvegicus [3]): -76.9 mmHg
O=C1OC[C@H]2OC(=O)c3cc(O)c(O)c(O)c3-c3c(O)c(O)c(O)c4c3C(=O)O[C@H]([C@H]3OC(=O)c5c-4c(O)c(O)c(O)c5[C@H]3O)[C@@H]2OC(=O)c2cc(O)c(O)c(O)c2-c2c1cc(O)c(O)c2O [CASTALAGIN],6.4,Active,Active,Dose-dependent effect,6.3,,Activity (Rattus norvegicus [6]): -49.6 mmHg
O=C1O[C@@H]2[C@@H](OC(=O)c3cc(O)c(O)c(O)c3-c3c1cc(O)c(O)c3O)[C@H](O)O[C@@H]1COC(=O)c3cc(O)c(O)c(O)c3-c3c(O)c(O)c4oc(=O)c5c(c(O)c(O)c6oc(=O)c3c4c65)-c3c(cc(O)c(O)c3O)C(=O)O[C@@H]21 [PUNICALAGIN],,,,,5.4,,Activity (Rattus norvegicus [7]): Active; Activity (Rattus norvegicus [8]): -63.4 mmHg
O=C(O[C@@H]1O[C@@H]2COC(=O)c3cc(O)c(O)c(O)c3-c3c(cc(O)c(O)c3O)C(=O)O[C@H]([C@H]1O)[C@@H]2O)c1cc(O)c(O)c(O)c1 [CORILAGIN],6.5,Active,Active,Dose-dependent effect,6.7,,Activity (Rattus norvegicus [6]): -52.6 mmHg
O=C(OC[C@H]1O[C@@H](OC(=O)c2cc(O)c(O)c(O)c2)[C@H](OC(=O)c2cc(O)c(O)c(O)c2)[C@@H](OC(=O)c2cc(O)c(O)c(O)c2)[C@@H]1OC(=O)c1cc(O)c(O)c(O)c1)c1cc(O)c(O)c(O)c1 [PENTAGALLOYL GLUCOSE],,,,,,-7.1,
O=C1O[C@@H]2[C@@H](OC(=O)c3cc(O)c(O)c(O)c3-c3c1cc(O)c(O)c3O)[C@H](O)[C@@H](CO)O[C@H]2O,,,,,,-5.5,
O=C(O)C[C@@H]1C(=O)O[C@H]2[C@@H]3OC(=O)c4cc(O)c(O)c(O)c4-c4c(cc(O)c(O)c4O)C(=O)OC[C@H]2O[C@@H](OC(=O)c2cc(O)c(O)c(O)c2)[C@@H]3OC(=O)c2cc(O)c(O)c3c2[C@H]1[C@H](O)C(=O)O3 [CHEBULAGIC ACID],,,,,,-6.5,
O=C(OC[C@H]1O[C@@H](OC(=O)c2cc(O)c(O)c(O)c2)[C@H](OC(=O)c2cc(O)c(O)c(O)c2)[C@@H](OC(=O)c2cc(O)c(O)c(O)c2)[C@@H]1O)c1cc(O)c(O)c(O)c1,,,,,,2.3,
O=C(O[C@@H]1[C@@H](OC(=O)c2cc(O)c(O)c(O)c2)[C@H](O)[C@@H](CO)O[C@H]1O)c1cc(O)c(O)c(O)c1,,,,,,4.52,
O=C(OC[C@H]1O[C@@H](O)[C@H](OC(=O)c2cc(O)c(O)c(O)c2)[C@@H](OC(=O)c2cc(O)c(O)c(O)c2)[C@@H]1OC(=O)c1cc(O)c(O)c(O)c1)c1cc(O)c(O)c(O)c1,,,,,,-5.2,
